The values that follow come from patent publication US20260337156A1, “SOLUBILIZING COMPOUNDS” (Vivesto AB, priority 2022, published 2026).

What all share (assay type): physicochemical
Series [1] in a line: micellar particle size and polydispersity index (ZetaSizer, dynamic light scattering) of drug formulations at different dilutions. To be noted: micelles with docetaxel. The method, then: The particle size of the micelles in the composition is typically in the range of about 5 to about 150 nm. The particle size may be determined e.g. using Dynamic Light Scattering (DLS) in 0.9% NaCl at 1 mg/mL drug concentration, preferably using a red laser with a wavelength of 633 nm.
Micellar size was measured using a ZetaSizer from Malvern Panalytical. […]
20 mg of example 1 was dispensed into a 25 mL round bottom flask and dissolved in methanol (3 mL). 800 μL of a stock solution of docetaxel in methanol (5 mg/mL) was added. The solution was evaporated to dryness in a rotary evaporator. Final drying was performed in a desiccator to remove residual solvent. Hydration of the dried film was performed by adding water for injection (1.0 mL) to a concentration of 4 mg/mL of docetaxel. The 4 mg/mL concentration was further diluted with 0.9% sodium chloride according to the table below. […]
A serial dilution was performed for the system docetaxel:compound 1. A stock solution of docetaxel in methanol was mixed with a stock solution of the micelle forming agent (compound 1) in a round bottom flask at a weight ratio of 1:5. The mixture was evaporated to dryness in a rotary evaporator. Final drying was performed in a desiccator to remove residual solvent. Hydration of the dried film was performed by adding water for injection (1.0 mL) to a concentration of 1 mg/mL of docetaxel. The resulting solution was filtered through a 0.22 μm sterile filter and further diluted with 0.9% sodium chloride solution.
4.5 mg of compound 1 was dispensed into a 25 mL round bottom flask and dissolved in methanol (2 mL). 1500 μL of a stock solution of cabazitaxel in methanol (1.00 mg/mL) was added. The solution was evaporated to dryness in a rotary evaporator. Final drying was performed in a desiccator to remove residual solvent. […]

Series [2] can be described thus: drug loading capacity (ratio of amount API:(API+excipient)). To be noted: docetaxel 1.25 mg + compound 4.0 mg. The method, then: (§1) The solution was evaporated to dryness in a rotary evaporator. Final drying was performed in a desiccator to remove residual solvent. Hydration of the dried film was performed by adding water for injection (1.2 mL). […] Drug loading capacity is defined as the ratio of amount API:(API+excipient).
20 mg of example 1 was dispensed into a 25 mL round bottom flask and dissolved in methanol (3 mL). 800 μL of a stock solution of docetaxel in methanol (5 mg/mL) was added. The solution was evaporated to dryness in a rotary evaporator. Final drying was performed in a desiccator to remove residual solvent. Hydration of the dried film was performed by adding water for injection (1.0 mL) to a concentration of 4 mg/mL of docetaxel. The 4 mg/mL concentration was further diluted with 0.9% sodium chloride according to the table below.
(§2) 11 mg of example 1 was dispensed into a 25 mL round bottom flask and dissolved in methanol (2 mL). 740 μL of a stock solution of docetaxel in methanol (4.96 mg/mL) was added. The solution was evaporated to dryness in a rotary evaporator. Final drying was performed in a desiccator to remove residual solvent.
(§3) 4.5 mg of compound 1 was dispensed into a 25 mL round bottom flask and dissolved in methanol (2 mL). 1500 μL of a stock solution of cabazitaxel in methanol (1.00 mg/mL) was added. The solution was evaporated to dryness in a rotary evaporator. Final drying was performed in a desiccator to remove residual solvent.
4.5 mg of compound 1 was dispensed into a 25 mL round bottom flask and dissolved in methanol (2 mL). 1500 μL of a stock solution of cyclosporin in methanol (1.00 mg/mL) was added. The solution was evaporated to dryness in a rotary evaporator. Final drying was performed in a desiccator to remove residual solvent.
4.0 mg of compound 2 was dispensed into a 25 mL round bottom flask and dissolved in methanol (3 mL). 250 μL of a stock solution of docetaxel in methanol (5 mg/mL) was added. The solution was evaporated to dryness in a rotary evaporator. Final drying was performed in a desiccator to remove residual solvent. Hydration of the dried film was performed by adding water for injection (1.25 mL). […]
4.5 mg of compound 3 was dispensed into a 25 mL round bottom flask and dissolved in methanol (3 mL). 305 μL of a stock solution of docetaxel in methanol (4.96 mg/mL) was added. The solution was evaporated to dryness in a rotary evaporator. Final drying was performed in a desiccator to remove residual solvent.
4.5 mg of compound 3 was dispensed into a 25 mL round bottom flask and dissolved in methanol (3 mL). […] of a stock solution of docetaxel in methanol (4.96 mg/mL) was added. The solution was evaporated to dryness in a rotary evaporator. Final drying was performed in a desiccator to remove residual solvent.

The nature of series [3]: appearance of the hydrated drug formulation. To be noted: formulation with docetaxel. The method, then:
3.8 mg of compound 1 was dispensed into a 25 mL round bottom flask and dissolved in methanol (2 mL). 240 μL of a stock solution of docetaxel in methanol (5 mg/mL) was added.
as §1, §2, §3
4.5 mg of compound 1 was dispensed into a 25 mL round bottom flask and dissolved in methanol (2 mL). 1500 μL of a stock solution of cyclosporin in methanol (1.00 mg/mL) was added. The solution was evaporated to dryness in a rotary evaporator. Final drying was performed in a desiccator to remove residual solvent. […]
4.5 mg of compound 4 was dispensed into a round bottom flask and dissolved in methanol (3 mL). […] of a stock solution of docetaxel in methanol (4.96 mg/mL) was added. The solution was evaporated to dryness in a rotary evaporator. Final drying was performed in a desiccator (40 min) to remove residual solvent. Rehydration of the dried film was performed by adding 0.9% sodium chloride solution (1.5 mL).

Series [4] in a line: particle size and polydispersity index of drug micelles over time (ZetaSizer). The settings on record: docetaxel:compound 1:5, docetaxel 0.5 mg/mL. As for the experimental part: Micellar size was measured using a ZetaSizer from Malvern Panalytical.
A stock solution of docetaxel in methanol was mixed with a stock solution of compound 1 in a round bottom flask. The mixture was evaporated to dryness in a rotary evaporator. Final drying was performed in a desiccator to remove residual solvent. Hydration of the dried film was performed by adding water for injection (1.0 mL) to a concentration of 1 mg/mL of docetaxel. The resulting solution was filtered through a 0.22 μm sterile filter and further diluted with 0.9% sodium chloride solution to 0.5 mg/mL of docetaxel. […]
A stock solution of cyclosporin in methanol was mixed with a stock solution of compound 1 in a round bottom flask. The mixture was evaporated to dryness in a rotary evaporator. Final drying was performed in a desiccator to remove residual solvent. Hydration of the dried film was performed by adding water for injection (1.0 mL) to a concentration of 1 mg/mL of cyclosporin. The resulting solution was filtered through a 0.22 μm sterile filter and further diluted with 0.9% sodium chloride solution to 0.5 mg/mL of cyclosporin. The final weight ratio of cyclosporin to micelle forming agent was 1:3.
A stock solution of docetaxel in methanol was mixed with a stock solution of compound 3 in a round bottom flask. The mixture was evaporated to dryness in a rotary evaporator. Final drying was performed in a desiccator to remove residual solvent. Hydration of the dried film was performed by adding water for injection (1.0 mL) to a concentration of 1 mg/mL of docetaxel. The resulting solution was filtered through a 0.22 μm sterile filter and further diluted with 0.9% sodium chloride solution to 0.5 mg/mL of Docetaxel. The final weight ratio of docetaxel to micelle forming agent was 1:3.
A stock solution of cyclosporin in methanol was mixed with a stock solution of compound 3 in a round bottom flask. The mixture was evaporated to dryness in a rotary evaporator. Final drying was performed in a desiccator to remove residual solvent. Hydration of the dried film was performed by adding water for injection (1.0 mL) to a concentration of 1 mg/mL of cyclosporin. The resulting solution was filtered through a 0.22 μm sterile filter and further diluted with 0.9% sodium chloride solution to 0.5 mg/mL of cyclosporin. The final weight ratio of cyclosporin to micelle forming agent was 1:3.
A stock solution of docetaxel in methanol was mixed with a stock solution of compound 4 in a round bottom flask. The mixture was evaporated to dryness in a rotary evaporator. Final drying was performed in a desiccator to remove residual solvent. Hydration of the dried film was performed by adding water for injection (1.0 mL) to a concentration of 1 mg/mL of docetaxel. The resulting solution was filtered through a 0.22 μm sterile filter and further diluted with 0.9% sodium chloride solution to 0.5 mg/mL of docetaxel. […]
A stock solution of docetaxel in methanol was mixed with a stock solution of compound 5 in a round bottom flask. The mixture was evaporated to dryness in a rotary evaporator. Final drying was performed in a desiccator to remove residual solvent. Hydration of the dried film was performed by adding water for injection (1.0 mL) to a concentration of 1 mg/mL of docetaxel. The resulting solution was filtered through a 0.22 μm sterile filter and further diluted with 0.9% sodium chloride solution to 0.5 mg/mL of docetaxel. The final weight ratio of docetaxel to micelle forming agent was 1:3.
A stock solution of cabazitaxel in methanol was mixed with a stock solution of compound 5 in a round bottom flask. The mixture was evaporated to dryness in a rotary evaporator. Final drying was performed in a desiccator to remove residual solvent. Hydration of the dried film was performed by adding water for injection (1.0 mL) to a concentration of 1 mg/mL of cabazitaxel. […]

Where [5] appears, read: 1.25 mg docetaxel + 4.0 mg compound, water 1.25 mL, mixed 1:1 v/v with 0.9% NaCl.
The mark [6] stands for this setting: ratio 3:1, 0.9% NaCl, docetaxel conc. 0.25 mg/mL.
Setting [7] is: ratio 3:1, 0.9% NaCl, docetaxel conc. 0.5 mg/mL.
The mark [8] stands for this setting: ratio 3:1, 0.9% NaCl, docetaxel conc. 1 mg/mL.

On to `COc1cc(C)c(/C=C/C(C)=C/C=C/C(C)=C/C(=O)N(CCCS(=O)(=O)[O-])C2CCCCC2)c(C)c1C.[Na+]` [Compound 2], for which, in series [1] (setting [5]), the Particle size is recorded as 17.9 nm and the Polydispersity index is on record as 0.72. The Drug loading capacity in series [2] worked out at 24%. The appearance of formulation entry in series [3] is “yellow transparent solution”.
`COc1cc(C)c(/C=C/C(C)=C/C=C/C(C)=C/C(=O)N(CC(O)CS(=O)(=O)[O-])C2CCCCC2)c(C)c1C.[Na+]` (stereo not drawn) [Compound 4]: the Particle size in series [1] (setting [6]) worked out at 8.7 nm; in series [1] (setting [7]), 8.9 nm; in series [1] (setting [8]) it was 8.9 nm; in series [4] (time 0 h) it was 34.56 nm; in series [4] (time 1 h), 54.37 nm; in series [4] (time 2 h), 56.46 nm. The results for the Particle size in series [4] (time 4 h), in series [4] (time 6 h) and in series [4] (time 24 h) were 58.90 nm, 59.79 nm and 78.72 nm, respectively. Besides, the Polydispersity index in series [1] (setting [6]) came to 0.31; in series [1] (setting [7]) it was 0.25; in series [1] (setting [8]), 0.32; in series [4] (time 0 h), 0.26; in series [4] (time 1 h), 0.14; in series [4] (time 2 h) it was 0.12. Moreover, the figures for the Polydispersity index in series [4] (time 4 h), in series [4] (time 6 h) and in series [4] (time 24 h) were 0.11, 0.12 and 0.08, respectively. Further, the “change of particle size and polydispersity index over time” value in series [4] (0-24 h) was “Increase in the particle size and variations of the polydispersity index over time were noted”. Besides, the appearance of formulation entry in series [3] is recorded as “yellow transparent solution”.
